From ChEMBL document CHEMBL5465560, “Selectivity Literature for EUbOPEN Chemogenomic Library” (2024)

Assays:
[1] = target: T1, Mitogen-activated protein kinase kinase kinase 5 (Homo sapiens) (UniProt Q99683); test: Selectivity interaction (KinomeScan (DiscoverX)) EUB0001079a MAP3K5; conditions: at 1 µM
T1 sequence (whole entry): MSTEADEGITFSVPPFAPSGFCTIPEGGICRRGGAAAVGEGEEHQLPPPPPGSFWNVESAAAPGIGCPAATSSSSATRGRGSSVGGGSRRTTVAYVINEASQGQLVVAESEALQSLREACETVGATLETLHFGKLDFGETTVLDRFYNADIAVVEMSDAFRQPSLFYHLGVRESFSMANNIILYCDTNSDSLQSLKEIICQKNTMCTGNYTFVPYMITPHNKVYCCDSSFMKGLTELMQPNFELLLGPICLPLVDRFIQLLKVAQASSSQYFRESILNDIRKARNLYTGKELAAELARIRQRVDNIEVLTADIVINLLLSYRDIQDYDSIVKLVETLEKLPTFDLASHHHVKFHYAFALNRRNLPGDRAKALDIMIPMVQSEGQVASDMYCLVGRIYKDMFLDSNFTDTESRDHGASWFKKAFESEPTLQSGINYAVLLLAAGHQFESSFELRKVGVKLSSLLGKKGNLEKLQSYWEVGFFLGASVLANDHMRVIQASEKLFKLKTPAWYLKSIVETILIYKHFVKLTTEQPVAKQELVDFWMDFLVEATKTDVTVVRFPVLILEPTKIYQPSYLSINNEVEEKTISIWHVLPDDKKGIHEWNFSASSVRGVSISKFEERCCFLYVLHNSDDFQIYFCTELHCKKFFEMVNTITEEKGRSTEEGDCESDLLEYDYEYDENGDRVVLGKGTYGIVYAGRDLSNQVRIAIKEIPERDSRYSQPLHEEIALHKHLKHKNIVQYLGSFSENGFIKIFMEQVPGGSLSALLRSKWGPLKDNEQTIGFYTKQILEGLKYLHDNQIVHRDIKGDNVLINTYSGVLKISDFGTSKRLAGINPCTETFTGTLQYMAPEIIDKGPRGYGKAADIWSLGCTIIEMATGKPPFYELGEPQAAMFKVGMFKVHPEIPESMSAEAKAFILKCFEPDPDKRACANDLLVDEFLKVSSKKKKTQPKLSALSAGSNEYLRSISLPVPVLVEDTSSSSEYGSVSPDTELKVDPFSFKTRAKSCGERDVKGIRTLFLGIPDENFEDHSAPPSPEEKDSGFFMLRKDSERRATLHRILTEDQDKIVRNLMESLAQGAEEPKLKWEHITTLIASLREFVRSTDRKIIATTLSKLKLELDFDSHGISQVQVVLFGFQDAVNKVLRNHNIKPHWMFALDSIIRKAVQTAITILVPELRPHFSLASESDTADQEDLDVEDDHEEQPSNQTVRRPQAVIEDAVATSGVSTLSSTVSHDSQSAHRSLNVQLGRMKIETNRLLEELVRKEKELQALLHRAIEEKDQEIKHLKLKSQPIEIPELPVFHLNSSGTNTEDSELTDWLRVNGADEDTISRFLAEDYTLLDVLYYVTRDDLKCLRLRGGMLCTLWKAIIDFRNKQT

[2] = target: T2, Membrane-associated tyrosine- and threonine-specific cdc2-inhibitory kinase (Homo sapiens) (UniProt Q99640); test: Selectivity interaction (KinomeScan (DiscoverX)) EUB0001079a PKMYT1; conditions: at 1 µM
T2 sequence (whole entry): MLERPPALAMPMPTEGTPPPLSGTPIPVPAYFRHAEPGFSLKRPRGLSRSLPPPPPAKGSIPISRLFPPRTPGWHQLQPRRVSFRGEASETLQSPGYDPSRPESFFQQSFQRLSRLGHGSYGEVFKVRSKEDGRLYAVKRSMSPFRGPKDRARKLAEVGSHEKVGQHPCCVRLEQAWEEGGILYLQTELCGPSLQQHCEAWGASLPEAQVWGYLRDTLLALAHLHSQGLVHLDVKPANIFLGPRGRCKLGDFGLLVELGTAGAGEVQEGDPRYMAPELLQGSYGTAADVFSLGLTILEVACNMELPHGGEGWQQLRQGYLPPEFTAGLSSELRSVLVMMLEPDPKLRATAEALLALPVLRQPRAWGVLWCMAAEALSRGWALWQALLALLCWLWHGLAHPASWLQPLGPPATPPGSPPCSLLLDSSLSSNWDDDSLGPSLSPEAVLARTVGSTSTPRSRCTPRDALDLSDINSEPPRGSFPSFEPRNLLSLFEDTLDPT

[3] = target: T3, Mitogen-activated protein kinase 13 (Homo sapiens) (UniProt O15264); test: Selectivity interaction (KinomeScan (DiscoverX)) EUB0001619a MAPK13; conditions: at 1 µM
T3 sequence (whole entry): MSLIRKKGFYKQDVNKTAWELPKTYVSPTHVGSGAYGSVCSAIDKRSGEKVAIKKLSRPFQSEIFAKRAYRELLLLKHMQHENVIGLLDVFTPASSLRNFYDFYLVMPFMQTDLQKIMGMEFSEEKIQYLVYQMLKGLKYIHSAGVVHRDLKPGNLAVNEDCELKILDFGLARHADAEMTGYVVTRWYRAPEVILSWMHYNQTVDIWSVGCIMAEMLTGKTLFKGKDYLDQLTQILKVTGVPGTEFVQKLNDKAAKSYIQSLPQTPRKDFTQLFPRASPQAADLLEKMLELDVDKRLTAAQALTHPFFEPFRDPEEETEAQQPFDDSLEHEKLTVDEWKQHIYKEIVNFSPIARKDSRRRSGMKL

[4] = target: Casein kinase II subunit alpha' (Homo sapiens) (UniProt P19784); test: Selectivity interaction (SelectScreen profiling (Invitrogen)) EUB0000607a CSNK2A2; conditions: at 2 µM
Sequence of Casein kinase II subunit alpha' (Homo sapiens) (P19784 whole entry, looked up): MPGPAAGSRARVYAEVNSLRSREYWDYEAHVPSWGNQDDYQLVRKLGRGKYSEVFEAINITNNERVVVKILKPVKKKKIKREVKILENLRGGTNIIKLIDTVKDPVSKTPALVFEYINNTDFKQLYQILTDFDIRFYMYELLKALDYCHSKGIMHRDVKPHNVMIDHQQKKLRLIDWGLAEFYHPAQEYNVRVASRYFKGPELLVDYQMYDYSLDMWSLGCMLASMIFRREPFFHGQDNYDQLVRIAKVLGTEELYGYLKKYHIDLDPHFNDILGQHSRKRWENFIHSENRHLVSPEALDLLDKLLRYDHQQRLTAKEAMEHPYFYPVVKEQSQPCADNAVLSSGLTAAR

**Q.** For `Nc1cnc(N2CCc3cc(S(=O)(=O)Nc4c(F)cc(Cl)cc4F)cc(N4CCCC4=O)c32)nc1` [TP-020n], which % of control [1] is on record?
**A.** 83%

**Q.** And the % of control [2]?
**A.** 99%

**Q.** `N#Cc1cccc(-c2c[nH]c3ncnc(N4CCOCC4)c23)c1` was tested. Which % of control [3] did it give?
**A.** 70%

**Q.** With `CNC(=O)Nc1ccc(-c2nc(N3CC4CCC(C3)O4)c3cnn(C4CCC5(CC4)OCCO5)c3n2)cc1` as the compound, how does the % of inhibition [4] read?
**A.** 3%
